Results as given in ChEMBL document CHEMBL3352545, “Two new unusual monoterpene acid glycosides from Acacia cyclops with potential cytotoxic activity” (2014).

Tests used:
OVCAR = assay: Growth inhibition of human OVCAR cells at 50 ug/mL by MTT assay; format: functional; settings: read-out: GI
MCF7 = assay: Growth inhibition of human MCF7 cells at 50 ug/mL by MTT assay; format: functional; settings: read-out: GI

| SMILES | inhibition of growth at 50 µg/mL (OVCAR) | inhibition of growth at 50 µg/mL (MCF7) |
| --- | --- | --- |
| C=CC(C)(CC/C=C(\C)C(=O)O)O[C@@H]1O[C@H](CO)[C@@H](OC(C)(C=C)CC/C=C(/C)C(=O)O)[C@H](O)[C@H]1O (some centres undefined) | 77.7% | 98.9% |
| C=CC(C)(CC/C=C(\C)C(=O)O)O[C@@H]1O[C@@H](C)[C@H](OC(C)(C=C)CC/C=C(\C)C(=O)O)[C@@H](O)[C@H]1O (some centres undefined) | 66.5% | 68.2% |
